US20040221332A1, “Plant growth regulating genes, proteins and uses thereof” (priority 2001, published 2004)
Where two headings read alike, the source gives them in different places.

Tests used:
[1] = tested on: OsGREP1 transcript levels; assay: RNA gel blot of OsGREP1 mRNA in deepwater rice stem sections treated with gibberellin; parameters: species or system Oryza sativa; details: 50 μM GA3, stem sections, meristematic zone, within 30 minutes and again 15 h after onset
Experimental: Analysis of hormone and inhibitor effects was performed using excised stem segments containing the youngest growth-responsive internode (Raskin & Kende, 1984). Growth of the stem sections was induced by application of 50 μM GA3 for the times indicated. To inhibit protein synthesis, stem sections were incubated in aqueous solutions of cycloheximide for the times indicated. Plant tissue for RNA extraction was harvested on ice and immediately after harvest frozen in liquid nitrogen. Meristematic tissue was harvested from 0 to 5 mm above the second youngest node, i.e. the intercalary meristem (IM). […]
To determine gene expression under different conditions and in different rice tissues, mRNA abundance of OsGREP1 was analyzed by RNA gel blot hybridization. […]
mRNA abundance of OsGREP1 was also analyzed in different tissues of adult rice plants and seedlings and in suspension-cultured rice cells by RNA gel blot analysis (FIG. 7). […] OsGREP1 mRNA can also be detected in suspension-cultured cells but at lower levels than in all other tissues. […] Stem sections containing the IM and EZ of the internode were treated with 50 μM GA3 and analyzed for expression of OsGREP1 by RNA gel blot hybridization 0, […], 1, 3, 6 and 15 h after treatment (FIG. 8).

[2] = tested on: OsGREP1 transcripts; assay: RNA gel blot of OsGREP1 mRNA in deepwater rice internode sections treated with cycloheximide; parameters: species or system Oryza sativa
Experimental: Analysis of hormone and inhibitor effects was performed using excised stem segments containing the youngest growth-responsive internode (Raskin & Kende, 1984). Growth of the stem sections was induced by application of 50 μM GA3 for the times indicated. To inhibit protein synthesis, stem sections were incubated in aqueous solutions of cycloheximide for the times indicated. Plant tissue for RNA extraction was harvested on ice and immediately after harvest frozen in liquid nitrogen. Meristematic tissue was harvested from 0 to 5 mm above the second youngest node, i.e. the intercalary meristem (IM). Cells which are predominately involved in elongation were harvested from 5 to 15 mm above the second youngest node, i.e. the elongation zone (EZ) and differentiated tissue was harvested from the oldest part of the internode below the youngest node, i.e. the differentiation zone (DZ).
To determine gene expression under different conditions and in different rice tissues, mRNA abundance of OsGREP1 was analyzed by RNA gel blot hybridization. Total RNA was isolated using the TRIzol reagent (Gibco BRL) and precipitated with 4M LiCl as described (Puissant & Houdebine, 1990). […]
Gene expression of OsGREP1 was also determined by measuring mRNA abundance in IM sections of deepwater rice internodes treated with cycloheximide (CHX) at 0, 0.02, 2, and 20 μg/ml (FIG. 9). […]

[3] = tested on: protein synthesis; details: alfalfa, 150 μM; cited from earlier work
[4] = tested on: protein synthesis; details: maize, 20 μM CHX; cited from earlier work
[5] = tested on: Arabidopsis thaliana; assay: Phenotypic characterization of transgenic plants transformed with OsPSK (digital imaging of rosette and inflorescence); type: in vivo
Experimental: Of 11 different transgenic plant lines of Arabidopsis thaliana (named AE0017, AE0018, AE0019, AE0021, AE0022, AE0023, AE0024, AE0025, AE0026, AE0027 and Os-PSK) 500 mg of seeds is placed in 50 ml plastic tubes. 27 ml of a 0.2% agar solution is added and mixed to suspend the seeds. The said tubes are stored at 4° C. for 3 days to release dormancy. Subsequently, the suspension of seeds was evenly dispensed as drops of 50 μl on a 50 cm by 30 cm tray containing a mixture of sand and soil in a ratio of 1 to 2.
The trays were placed in the greenhouse under the following conditions: 22° C. at day time, 18° C. at night, 60% RH, 20 hours of photoperiod, subirrigation once a day with water during 15 min. The 4th day and the 10th day after sowing, the seedlings were sprayed with an herbicide solution. The 14th day after sowing, 30 resistant seedlings of each transgenic line were transplanted in individual pots with a diameter of 10 cm containing a mixture of sand and peat in a ratio of 1 to 3.
Said pots are then placed in the greenhouse under the same conditions as described for the trays. The pots are subirrigated during 15 min. once a week, or more if needed. The 14th, 18th, 21st, 28th, 32nd and 39th day after sowing, the rosettes of each plant were photographed using a digital camera and the pictures were stored for further analysis.
The 32nd, 38th, 41 st, 46th, 49th, and 53rd day after sowing, the inflorescence of each plant was photographed equally using a digital camera and the pictures were stored for further analysis. The number of pixels corresponding to plant tissues was recorded on each picture, converted to square cm and used as a measurement of plant size.

For `C=C1C[C@]23C[C@@]1(O)CC[C@H]2[C@@]12C=C[C@H](O)[C@@](C)(C(=O)O1)[C@H]2[C@@H]3C(=O)O` [GA3, gibberellic acid], the OsGREP1 transcript levels [1] was “slight and transient increase” and the OsGREP1 transcript levels ([1]; listed as GA) was “induced”.

For `C[C@@H]1C[C@@H]([C@H](O)CC2CC(=O)NC(=O)C2)C(=O)[C@@H](C)C1` [cycloheximide], the OsGREP1 transcripts ([2]; IM sections of deepwater rice internodes, 20 μg/ml (corresponds to 70 μM) CHX) is given as “induced”, the “cycloheximide concentration at which OsGREP1 transcripts accumulate” value ([2]; stem sections of deepwater rice, 0 to 20 μg/ml tested) is given as ≥ 0.2 µg/mL and the “inhibition of protein synthesis” value [3] is given as 90%. The “inhibition of protein synthesis” value [4] was 23%.

B1: OsPSK: rice growth regulating polypeptide, prepro-phytosulfokine (SEQ ID NO 104/105), overexpressed in transgenic Arabidopsis under sunflower ubiquitin promoter (protein, listed as Oryza sativa)
chain: MVNPGRTARALCLLCLALLLLGQDTHSRKLLLQEKHSHGVGNGTTTTQEPSRENGGSTGSNNNGQLQFDSAKWEEFHTDYIYTQDVKNP
In the case of B1, the “ratio between size of inflorescence before harvest and maximal measured size of the rosette” value ([5]; OsPSK plants vs other transgenic plant lines in the same experiment) is reported as “significantly higher”, the rosette size ([5]; OsPSK transgenic line vs other transgenic lines) is reported as “slightly bigger” and the plant size ([5]; OsPSK transgenic line vs the other transgenic plant lines in the experiment) is reported as “on average the biggest plants”.
